The values below come from publication PMC11932996, “aac(6’)-Iaq, a novel aminoglycoside acetyltransferase gene identified from an animal isolate Brucella intermedia DW0551” (Frontiers in Cellular and Infection Microbiology, 2025).

For this assay, the system named is AAC(6’)-Iaq. It is filed as biochemical, Brucella intermedia.

As for `CCN[C@@H]1C[C@H](N)[C@@H](O[C@H]2OC(CN)=CC[C@H]2N)[C@H](O)[C@H]1O[C@H]1OC[C@](C)(O)[C@H](NC)[C@H]1O` [netilmicin], the Michaelis-Menten constant (Km) stood at 3.83 ± 0.34 µM. For `CN[C@@H]1[C@@H](O)[C@@H](O[C@@H]2[C@@H](O)[C@H](O[C@H]3OC(CN)=CC[C@H]3N)[C@@H](N)C[C@H]2N)OC[C@]1(C)O` [sisomicin], the Km is 4.33 ± 1.32 µM. Next, `NCC[C@H](O)C(=O)N[C@@H]1C[C@H](N)[C@@H](O[C@H]2O[C@H](CN)[C@@H](O)[C@H](O)[C@H]2O)[C@H](O)[C@H]1O[C@H]1O[C@H](CO)[C@@H](O)[C@H](N)[C@H]1O` [amikacin]: 14.1 ± 0.76 µM; `NC[C@H]1O[C@H](O[C@H]2[C@H](O)[C@@H](O[C@H]3O[C@H](CO)[C@@H](O)[C@H](N)[C@H]3O)[C@H](N)C[C@@H]2N)[C@H](O)[C@@H](O)[C@@H]1O` [kanamycin]: 13.3 ± 9.07 µM; `NC[C@H]1O[C@H](O[C@H]2[C@H](O[C@@H]3O[C@H](CO)[C@@H](O)[C@H]3O)[C@@H](O)[C@H](N)C[C@@H]2N)[C@H](N)[C@@H](O)[C@@H]1O` [ribostamycin]: 10.1 ± 2.45 µM.
